In US20260083759A1, “Combinations Comprising Psychedelics for the Treatment of Schizophrenia and Other Neuropsychiatric and Neurologic Disorders” (HADASIT MEDICAL RESEARCH SERVICES AND DEVELOPMENT LTD, priority 2022, published 2026):

Legend:
SV2A = assay: Western Blot of synaptic protein SV2A in brain regions, 7 days post-administration; assay type: in vivo, mice; conditions: hippocampus; single i.p. injection (D-Serine 3 g/kg or with psilocybin 4.4 mg/kg); 7 days post-administration (FIG. 5)
Description: (§1) Specifically, ICR mice were administered a single intra-peritoneal injection of psilocybin at a dosage of 4.4 mg/kg, D-Serine at a dosage of 3 g/kg, a combined psilocybin dosage of 4.4 mg/kg+D-Serine dosage of 3 g/kg and compared to control animals (administered a saline vehicle). 7 days post-administration, animals were harvested, and individual brain regions were dissected, homogenized and processed for Western Blot analysis, probing for GAP43, Synaptophysin and SV2A protein expression, using commercially available reagents (Abcam).
(§2) Animals injected with PSIL or D-SER or the combination of the two were specifically probed for changes in synaptic protein expression, for proteins that are pivotally involved in neuroplasticity of the brain, focusing on 4 key regions: the brain frontal cortex, hippocampus, amygdala and striatum.
(§3) In order to comparatively assess all the effects of individual DSER or PSIL and combined DSER and PSIL administration on each brain region, a nested analysis of variance in which the level each of the synaptic proteins was compared to controls was assessed across the four brain regions frontal cortex, hippocampus, amygdala and striatum (FIG. 6).

GAP43 = assay: Western Blot of synaptic protein GAP43 in brain regions, 7 days post-administration; assay type: in vivo, mice; conditions: for GAP43 protein levels: single i.p. injection (psilocybin 4.4 mg/kg, D-Serine 3 g/kg or both), 7 days post-administration, vs saline controls (FIG. 4)
Description: as §1, §2, §3

male ICR mice = assay: Head twitch response (HTR) induced by psilocybin in mice; assay type: in vivo
Source text: The head twitch response (HTR) induced by serotonergic psychedelic agents such as psilocybin (PSIL) in rodents, is a characteristic behavioral effect mediated by cortical 5-HT2A receptors that is highly correlated with the psychedelic trip induced by these agents in humans.
In order to determine whether the negative effects such as HTR could be blocked in schizophrenic patients administered psilocybin (PSIL) (which ordinarily would produce “trip-induced effects”) upon further receiving clozapine (CLZ), the effect of concurrent CLZ treatment in blocking the HTR-inducing effect of PSIL in mice was examined.
Toward this end, male ICR mice (aged 8 weeks) were implanted with mini car-magnets and were administered the following treatments intraperitoneally (i.p.): • 1. CLZ at a dosage of 1 or 2 mg/kg weight; • 2. PSIL at a dosage of 4.4 mg/kg weight; • 3. CLZ at a dosage of 1 mg/kg weight and PSIL at a dosage of 4.4 mg/kg weight; • 4. CLZ at a dosage of 2 mg/kg weight and PSIL at a dosage of 4.4 mg/kg weight; and • 5. Vehicle (Saline) controls.
CLZ was administered 30 minutes before PSIL. All injection volumes were identical. HTR was assessed in up to 6 mice simultaneously over a 20-minute period using a purpose-built magnetometer and custom software. Experiments were approved by the Authority for Biological and Biomedical Models, Hebrew University
To further extend these studies, it was of interest to determine the HTR effects induced by Psilocybin when mice were pre-administered D-Serine 3000 mg/kg, as opposed to CLZ (FIG. 2A), or D-Serine 1500 mg/kg, as opposed to CLZ (FIG. 2B).

Synaptophysin = assay: Western Blot of synaptic protein Synaptophysin in brain regions, 7 days post-administration; assay type: in vivo, mice
Description: as §1, §2, §3

ICR mice = assay: MK-801 induced hyperactivity in the open field; assay type: in vivo; conditions: MK-801 0.1 mg/kg i.p. immediately before open field for one hour (FIG. 3A)
Description: Hyperactivity induced in rodents by the NMDA receptor antagonist, MK-801, is a key rodent pharmacological model of acute psychotic features in humans.
Drugs which induce psychosis in humans enhance MK-801 induced hyperactivity in rodents while antipsychotic drugs reduce or block the effect.
In order to determine the interactive effects of PSIL and CLZ, a murine model was used where MK-801 induced hyperactivity, was assessed, which serves as a surrogate system for psychotic symptoms in schizophrenia patients.
Toward this end PSIL and CLZ alone and in combination were evaluated for their effects on MK-801 induced hyperactivity in […].
ICR mice were administered MK-801 intra-peritoneally, at a dose of 0.1 mg/kg immediately before they were placed in an open field for one hour. 30 minutes prior to administration of MK-801, mice were pretreated as follows: • 1. PSIL at a dosage of 4.4 mg/kg; • 2. CLZ at a dosage of 1.0 mg/kg; • 3. PSIL at a dosage of 4.4 mg/kg and CLZ at a dosage of 1.0 mg/kg; • 4. D-Serine (DSR) at a dosage of 3000 mg/kg; • 5. D-cycloserine (DCS) at a dosage of 320 mg/kg; • 6. […]
Activity in the open field was monitored by an overhead camera and was recorded by a Noldus Ethovision apparatus. […] Distance moved/travelled in the open field, center duration and center frequency were evaluated in the open field arena.

[1] = across the four brain regions frontal cortex, hippocampus, amygdala and striatum, 7 days post-administration (FIG. 6)

SMILES: N[C@H](CO)C(=O)O [D-Serine]
- SV2A expression (SV2A): increased
- GAP43 levels, nested analysis of variance compared to controls (GAP43; [1]): increase
- GAP43 protein levels (GAP43; amygdala): significantly increased
- GAP43 protein levels (GAP43; frontal cortex): significantly increased
- PSIL-mediated increased HTR (male ICR mice; D-Serine 3000 mg/kg (FIG. 2A) or 1500 mg/kg (FIG. 2B) pre-administered before Psilocybin): significantly reduced
- HTR (male ICR mice; DSR alone): did not affect HTR
- PSIL-mediated HTR over time (male ICR mice; lower D-serine dose with PSIL (FIG. 2C)): consistent over time
- Synaptophysin expression, nested analysis of variance compared to controls (Synaptophysin; [1]): increasing levels
- synaptophysin protein expression (Synaptophysin; frontal cortex, single i.p. injection D-Serine 3 g/kg, 7 days post-administration (FIG. 5)): increased

SMILES: N[C@@H]1CONC1=O [DCS, D-cycloserine]
- HTR (male ICR mice; DCS alone): did not affect HTR
- PSIL-mediated increased HTR over time (male ICR mice; plotted for up to 30 minutes, DCS at doses of over 320 mg/kg with PSIL (FIG. 2E)): rapid abrogation

SMILES: C[C@]12N[C@H](Cc3ccccc31)c1ccccc12 [MK-801]
- distance travelled in the open field (ICR mice): marked movement
